Molecular target: C-Raf FL (full length CRAF with Y340E and Y341E activating mutations, co-expressed with h14-3-3 zeta) (Homo sapiens (Human), UniProt P04049, Y340E/Y341E)
Experiment: In vitro Raf activity determination, AlphaScreen p-MEK readout, c-Raf (C-Raf FL)
Assay type: biochemical
Conditions: c-Raf approximately 4 nM, ATP 1 μM, pre-incubation 60 minutes, reaction 1 hour
In short: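 Full-length C-Raf (~4 nM) pre-incubated 60 min at room temperature with compound and kinase-dead biotinylated MEK1 (~10 nM) in Tris pH 7.5, 15 mM MgCl2, BSA, DTT. Reaction started with 1 μM ATP and run 1 h at room temperature. Phospho-MEK detected by AlphaScreen with anti-p-MEK antibody.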

Sequence of C-Raf FL (full length CRAF with Y340E and Y341E activating mutations, co-expressed with h14-3-3 zeta) (P04049 whole entry Y340E/Y341E): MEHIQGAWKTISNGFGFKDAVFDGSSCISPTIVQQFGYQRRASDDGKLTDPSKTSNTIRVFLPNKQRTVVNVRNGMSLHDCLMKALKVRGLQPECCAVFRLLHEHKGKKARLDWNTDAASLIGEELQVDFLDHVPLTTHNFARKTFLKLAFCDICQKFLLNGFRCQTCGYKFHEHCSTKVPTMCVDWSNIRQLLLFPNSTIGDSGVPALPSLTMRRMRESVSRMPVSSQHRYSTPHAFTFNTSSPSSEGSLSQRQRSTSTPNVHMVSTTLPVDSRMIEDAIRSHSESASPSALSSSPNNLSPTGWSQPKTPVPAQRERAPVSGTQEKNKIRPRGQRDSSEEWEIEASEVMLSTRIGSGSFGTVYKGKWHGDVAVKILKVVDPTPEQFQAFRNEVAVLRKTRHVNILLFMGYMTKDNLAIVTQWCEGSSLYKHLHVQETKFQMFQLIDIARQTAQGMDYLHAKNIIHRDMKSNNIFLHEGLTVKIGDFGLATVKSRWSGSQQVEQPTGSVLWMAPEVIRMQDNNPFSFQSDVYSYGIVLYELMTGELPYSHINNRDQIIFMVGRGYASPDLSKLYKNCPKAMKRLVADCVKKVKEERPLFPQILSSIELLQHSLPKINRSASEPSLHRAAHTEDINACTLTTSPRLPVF
Sequence of C-Raf FL (full length CRAF with Y340E and Y341E activating mutations, co-expressed with h14-3-3 zeta) (P63104 whole entry partner): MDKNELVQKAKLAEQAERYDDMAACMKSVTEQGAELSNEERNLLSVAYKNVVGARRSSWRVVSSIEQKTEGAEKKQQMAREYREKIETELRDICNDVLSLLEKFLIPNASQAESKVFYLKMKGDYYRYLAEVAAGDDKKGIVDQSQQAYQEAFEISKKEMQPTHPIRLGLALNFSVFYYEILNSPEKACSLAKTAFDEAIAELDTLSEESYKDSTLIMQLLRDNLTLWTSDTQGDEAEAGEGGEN

Structure (SMILES) | IC50 [nM]
Cc1ccc(NC(=O)c2ccnc(C(F)(F)F)c2)cc1-c1cnc2c(c1)N1CCOCC1C(F)(F)C2O (racemic) [Example 166, rac-cis-N-(3-(5,5-difluoro-6-hydroxy-1′2′4′4a′5′6-hexahydro-[1,4]oxazino[4,3-a][1,5]naphthyridin-9-yl)-4-methylphenyl)-2-(trifluoromethyl)isonicotinamide] | 0.011
Cc1ccc(NC(=O)c2ccnc(C(C)(F)F)c2)cc1-c1cnc2c(c1)N1CCOC[C@H]1C[C@@]2(O)C(F)(F)F (racemic) [Example 169, rac-cis-2-(1,1-difluoroethyl)-N-(3-(6-hydroxy-6-(trifluoromethyl)-1,2,4,4a,5,6-hexahydro-[1,4]oxazino[4,3-a][1,5]naphthyridin-9-yl)-4-methylphenyl)isonicotinamide] | 0.032
Cc1ccc(NC(=O)c2ccnc(C(F)(F)F)c2)cc1-c1cnc2c(c1)N1CCOC[C@H]1C[C@@]2(O)C(F)(F)F (racemic) [Example 170, rac-cis-N-(3-(6-hydroxy-6-(trifluoromethyl)-1,2,4,4a,5,6-hexahydro-[1,4]oxazino[4,3-a][1,5]naphthyridin-9-yl)-4-methylphenyl)-2-(trifluoromethyl)isonicotinamide] | 0.025
Cc1ccc(NC(=O)c2ccnc(C(F)(F)F)c2)cc1-c1cnc2c(c1)N1CCOCC1CC2N (racemic) [Example 171, rac-N-(3-(6-amino-1,2,4,4a,5,6-hexahydro-[1,4]oxazino[4,3-a][1,5]naphthyridin-9-yl)-4-methylphenyl)-2-(trifluoromethyl)isonicotinamide] | 0.019
CCC(=O)NC1CC2COCCN2c2cc(-c3cc(NC(=O)c4ccnc(C(F)(F)F)c4)ccc3C)cnc21 (racemic) [Example 172, rac-N-(4-methyl-3-(6-propionamido-1,2,4,4a,5,6-hexahydro-[1,4]oxazino[4,3-a][1,5]naphthyridin-9-yl)phenyl)-2-(trifluoromethyl)isonicotinamide] | 0.034
CNC(=O)C1Cc2ncc(-c3cc(NC(=O)c4ccnc(C(C)(F)F)c4)ccc3C)cc2N2CCOCC12 (racemic) [Example 173, rac-9-(5-(2-(1,1-difluoroethyl)isonicotinamido)-2-methylphenyl)-N-methyl-1,2,4,4a,5,6-hexahydro-[1,4]oxazino[4,3-a][1,5]naphthyridine-5-carboxamide] | 0.012
CCN1C(=O)Cc2nncn2-c2cc(-c3cc(NC(=O)c4ccnc(C(C)(F)F)c4)ccc3C)cnc21 (racemic) [Example 234, 2-(1,1-difluoroethyl)-N-(3-(6-ethyl-5-oxo-5,6-dihydro-4H-pyrido[2,3-b][1,2,4]triazolo[4,3-d][1,4]diazepin-9-yl)-4-methylphenyl)isonicotinamide] | 1.3
CCN1C(=O)[C@H]2[C@@H]3COC[C@@H]3[C@H]2c2cc(-c3cc(NC(=O)c4ccnc(C(F)(F)F)c4)ccc3C)cnc21 (racemic) [Example 362] | 0.2
Cc1ccc(NC(=O)c2ccnc(C(F)(F)F)c2)cc1-c1ccc2c(c1)N1CCOCC1C(CS(C)(=O)=O)C2 (racemic) [Example 363, (rac)-N-(4-methyl-3-(5-((methylsulfonyl)methyl)-1,2,4,4a,5,6-hexahydro-[1,4]oxazino[4,3-a]quinolin-9-yl)phenyl)-2-(trifluoromethyl)isonicotinamide] | 0.1
Cc1ncc(NC(=O)c2cccc(C(F)(F)F)c2)cc1-c1ccc2c(c1)N1CCOCC1C(CS(C)(=O)=O)C2 (racemic) [Example 364, (rac)-N-(6-methyl-5-(5-((methylsulfonyl)methyl)-1,2,4,4a,5,6-hexahydro-[1,4]oxazino[4,3-a]quinolin-9-yl)pyridin-3-yl)-3-(trifluoromethyl)benzamide] | 0.8
Cc1ccc(NC(=O)c2ccnc(C(C)(C)F)c2)cc1-c1ccc2c(c1)N1CCOCC1C(CS(C)(=O)=O)C2 (racemic) [Example 365, (rac)-2-(2-fluoropropan-2-yl)-N-(4-methyl-3-(5-((methylsulfonyl)methyl)-1,2,4,4a,5,6-hexahydro-[1,4]oxazino[4,3-a]quinolin-9-yl)phenyl)isonicotinamide] | 0.2
Cc1ccc(NC(=O)c2ccnc(C(C)(F)F)c2)cc1-c1ccc2c(c1)N1CCOC[C@]1(C)C[C@@H]2O (relative stereo) [Example 26] | 0.014
Cc1ccc(NC(=O)c2ccnc(C(C)(F)F)c2)cc1-c1cnc2c(c1)N1CCOC[C@H]1[C@H](F)[C@H]2O (relative stereo) [Example 140, rac-2-(1,1-difluoroethyl)-N-(3-((4aS*,5S*,6S*)-5-fluoro-6-hydroxy-1,2,4,4a,5,6-hexahydro-[1,4]oxazino[4,3-a][1,5]naphthyridin-9-yl)-4-methylphenyl)isonicotinamide] | 0.0085
CCN1C(=O)[C@@H]2COCC[C@@]2(C)c2cc(-c3cc(NC(=O)c4ccnc(C(F)(F)F)c4)ccc3C)cnc21 (relative stereo) [Example 341, N-(3-((4a,10b-trans)-6-ethyl-10b-methyl-5-oxo-2,4,4a,5,6,10b-hexahydro-1H-pyrano[3,4-c][1,8]naphthyridin-9-yl)-4-methylphenyl)-2-(trifluoromethyl)isonicotinamide] | 0.6
CCN1C(=O)[C@@H]2COCC[C@@]2(C)c2cc(-c3cc(NC(=O)c4ccnc(C(F)(F)F)c4)ccc3C)cnc21 (relative stereo) [Example 342, N-(3-((4a,10b-trans)-6-ethyl-10b-methyl-5-oxo-2,4,4a,5,6,10b-hexahydro-1H-pyrano[3,4-c][1,8]naphthyridin-9-yl)-4-methylphenyl)-2-(trifluoromethyl)isonicotinamide] | 0.1
Cc1ccc(NC(=O)c2ccnc(C(C)(F)F)c2)cc1-c1cnc2c(c1)[C@@]1(C)CCOCC[C@@H]1C(=O)N2CCO (relative stereo) [Example 351, 2-(1,1-difluoroethyl)-N-((5a,11b-trans)-3-(7-(2-hydroxyethyl)-11b-methyl-6-oxo-1,2,4,5,5a,6,7,11b-octahydrooxepino[4,5-c][1,8]naphthyridin-10-yl)-4-methylphenyl) isonicotinamide] | 1.1
Cc1ccc(NC(=O)c2ccnc(C(C)(F)F)c2)cc1-c1cnc2c(c1)[C@@]1(C)CCOCC[C@@H]1C(=O)N2CCO (relative stereo) [Example 352, 2-(1,1-difluoroethyl)-N-((5a,11b-trans)-3-(7-(2-hydroxyethyl)-11b-methyl-6-oxo-1,2,4,5,5a,6,7,11b-octahydrooxepino[4,5-c][1,8]naphthyridin-10-yl)-4-methylphenyl)isonicotinamide] | 0.1
Cc1ccc(NC(=O)c2ccnc(C(C)(F)F)c2)cc1-c1ccc2c(c1)N1CCOC[C@@H]1C[C@@H]2O (single isomer, unassigned) [Example 14] | 0.034
Cc1ccc(NC(=O)c2ccnc(C(C)(F)F)c2)cc1-c1ccc2c(c1)N1CCOC[C@H]1C[C@@H]2O (single isomer, unassigned) [Example 19] | 0.019
Cc1ccc(NC(=O)c2ccnc(C(C)(F)F)c2)cc1-c1ccc2c(c1)N1CCOC[C@@H]1C[C@H]2O (single isomer, unassigned) [Example 20] | 0.025
Cc1ccc(NC(=O)c2ccnc(C(C)(F)F)c2)cc1-c1ccc2c(c1)N1CCOC[C@H]1C(CO)(CO)C2 (single isomer, unassigned) [Example 52] | 0.16

Reference: patent US10377770B2 (Novartis AG, priority 2015, dated 2019)
